Test results published in ChEMBL document CHEMBL3886359, “Treatment of respiratory disorders using TRPA1 antagonists” (2015).

How the values were obtained:
Format in all cases: cell-based
[1] = target: Transient receptor potential cation channel subfamily M member 8 (Homo sapiens, UniProt Q7Z2W7); test: (§1) Radiometric Calcium Assay: The inhibition of TRPA1 receptor activation was measured as inhibition of allylisothiocyanate (AITC) induced cellular uptake of radioactive calcium. Test compounds were dissolved in DMSO to prepare 10 mM stock solution and then diluted using plain medium with 0.1% BSA and 1.8 mM CaCl2 to get desired concentration. Final concentration of DMSO in the reaction was 0.5% (v/v). Human TRPA1 expressing CHO cells were grown in F-12 DMEM medium with 10% FBS, 1% penicillin-streptomycin solution, and 400 ug/ml of G-418. Cells were seeded 24 h prior to the assay in 96 well plates so as to get 50,000 cells per well on the day of experiment. Cells were treated with test compounds for 10 min followed by addition of AITC at a final concentration of 30 micromolar and 5 uCi/ml 45Ca+2 for 3 min at 25° C. Cells were washed and lysed using buffer containing 1% Triton X-100, 0.1% deoxycholate and 0.1% SDS. Radioactivity in the lysate was measured in Packard Top count.
[2] = target: T1, Transient receptor potential cation channel subfamily V member 3 (Homo sapiens, UniProt Q8NET8); test: as §1
T1 sequence (Q8NET8 whole entry): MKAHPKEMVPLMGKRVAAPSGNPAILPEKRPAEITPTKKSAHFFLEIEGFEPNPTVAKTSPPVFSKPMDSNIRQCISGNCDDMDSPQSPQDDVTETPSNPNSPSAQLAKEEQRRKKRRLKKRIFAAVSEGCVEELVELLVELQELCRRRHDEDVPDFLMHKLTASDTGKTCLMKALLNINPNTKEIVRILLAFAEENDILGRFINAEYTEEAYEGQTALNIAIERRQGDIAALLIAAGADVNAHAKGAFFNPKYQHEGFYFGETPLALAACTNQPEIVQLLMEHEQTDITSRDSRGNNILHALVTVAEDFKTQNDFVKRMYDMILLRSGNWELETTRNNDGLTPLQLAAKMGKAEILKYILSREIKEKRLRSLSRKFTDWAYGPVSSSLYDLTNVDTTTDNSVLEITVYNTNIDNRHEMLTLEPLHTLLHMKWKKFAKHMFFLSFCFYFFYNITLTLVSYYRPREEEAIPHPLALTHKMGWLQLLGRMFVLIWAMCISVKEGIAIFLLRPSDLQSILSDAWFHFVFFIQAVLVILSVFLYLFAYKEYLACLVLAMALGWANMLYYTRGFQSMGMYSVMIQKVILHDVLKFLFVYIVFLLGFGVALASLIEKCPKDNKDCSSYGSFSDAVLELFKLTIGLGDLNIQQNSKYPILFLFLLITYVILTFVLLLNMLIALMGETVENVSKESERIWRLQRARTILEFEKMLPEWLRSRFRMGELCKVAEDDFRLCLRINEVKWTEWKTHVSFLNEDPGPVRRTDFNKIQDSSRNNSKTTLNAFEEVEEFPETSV

[3] = target: Transient receptor potential cation channel subfamily V member 4 (Homo sapiens, UniProt Q9HBA0); test: as §1
[4] = target: Transient receptor potential cation channel subfamily V member 1 (Homo sapiens, UniProt Q8NER1); test: as §1
[5] = target: Transient receptor potential cation channel subfamily A member 1 (Homo sapiens, UniProt O75762); test: as §1
Sequence of Transient receptor potential cation channel subfamily A member 1 (O75762 whole entry): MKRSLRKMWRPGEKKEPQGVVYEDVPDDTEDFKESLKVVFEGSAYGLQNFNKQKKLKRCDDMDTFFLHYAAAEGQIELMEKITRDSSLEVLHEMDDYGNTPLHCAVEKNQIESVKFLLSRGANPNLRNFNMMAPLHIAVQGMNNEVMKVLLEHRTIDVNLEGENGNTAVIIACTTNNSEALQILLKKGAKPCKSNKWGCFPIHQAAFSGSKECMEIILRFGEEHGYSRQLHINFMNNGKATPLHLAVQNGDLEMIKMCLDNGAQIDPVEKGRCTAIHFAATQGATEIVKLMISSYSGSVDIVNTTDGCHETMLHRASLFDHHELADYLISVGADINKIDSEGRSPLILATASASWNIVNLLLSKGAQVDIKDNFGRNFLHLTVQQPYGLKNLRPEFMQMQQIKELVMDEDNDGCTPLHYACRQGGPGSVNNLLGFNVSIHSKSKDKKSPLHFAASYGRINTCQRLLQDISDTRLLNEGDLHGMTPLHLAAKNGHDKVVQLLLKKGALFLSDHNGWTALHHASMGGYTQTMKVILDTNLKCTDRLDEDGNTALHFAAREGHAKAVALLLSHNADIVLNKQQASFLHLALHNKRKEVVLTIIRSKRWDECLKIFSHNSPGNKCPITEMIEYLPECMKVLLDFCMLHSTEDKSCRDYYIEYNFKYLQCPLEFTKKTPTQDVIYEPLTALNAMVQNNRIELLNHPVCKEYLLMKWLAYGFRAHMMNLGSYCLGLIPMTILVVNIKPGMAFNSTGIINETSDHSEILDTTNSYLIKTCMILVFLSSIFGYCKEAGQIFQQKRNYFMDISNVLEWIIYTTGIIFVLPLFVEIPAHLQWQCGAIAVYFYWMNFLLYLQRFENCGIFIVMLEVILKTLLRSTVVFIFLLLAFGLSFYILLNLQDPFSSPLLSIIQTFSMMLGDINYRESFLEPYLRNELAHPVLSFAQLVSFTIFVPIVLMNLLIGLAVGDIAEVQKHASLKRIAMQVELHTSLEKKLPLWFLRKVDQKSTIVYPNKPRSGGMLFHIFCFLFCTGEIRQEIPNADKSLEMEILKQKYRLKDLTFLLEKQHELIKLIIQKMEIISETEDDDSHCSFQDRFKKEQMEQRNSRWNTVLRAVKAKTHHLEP

Sequence of Transient receptor potential cation channel subfamily M member 8 (Q7Z2W7 whole entry): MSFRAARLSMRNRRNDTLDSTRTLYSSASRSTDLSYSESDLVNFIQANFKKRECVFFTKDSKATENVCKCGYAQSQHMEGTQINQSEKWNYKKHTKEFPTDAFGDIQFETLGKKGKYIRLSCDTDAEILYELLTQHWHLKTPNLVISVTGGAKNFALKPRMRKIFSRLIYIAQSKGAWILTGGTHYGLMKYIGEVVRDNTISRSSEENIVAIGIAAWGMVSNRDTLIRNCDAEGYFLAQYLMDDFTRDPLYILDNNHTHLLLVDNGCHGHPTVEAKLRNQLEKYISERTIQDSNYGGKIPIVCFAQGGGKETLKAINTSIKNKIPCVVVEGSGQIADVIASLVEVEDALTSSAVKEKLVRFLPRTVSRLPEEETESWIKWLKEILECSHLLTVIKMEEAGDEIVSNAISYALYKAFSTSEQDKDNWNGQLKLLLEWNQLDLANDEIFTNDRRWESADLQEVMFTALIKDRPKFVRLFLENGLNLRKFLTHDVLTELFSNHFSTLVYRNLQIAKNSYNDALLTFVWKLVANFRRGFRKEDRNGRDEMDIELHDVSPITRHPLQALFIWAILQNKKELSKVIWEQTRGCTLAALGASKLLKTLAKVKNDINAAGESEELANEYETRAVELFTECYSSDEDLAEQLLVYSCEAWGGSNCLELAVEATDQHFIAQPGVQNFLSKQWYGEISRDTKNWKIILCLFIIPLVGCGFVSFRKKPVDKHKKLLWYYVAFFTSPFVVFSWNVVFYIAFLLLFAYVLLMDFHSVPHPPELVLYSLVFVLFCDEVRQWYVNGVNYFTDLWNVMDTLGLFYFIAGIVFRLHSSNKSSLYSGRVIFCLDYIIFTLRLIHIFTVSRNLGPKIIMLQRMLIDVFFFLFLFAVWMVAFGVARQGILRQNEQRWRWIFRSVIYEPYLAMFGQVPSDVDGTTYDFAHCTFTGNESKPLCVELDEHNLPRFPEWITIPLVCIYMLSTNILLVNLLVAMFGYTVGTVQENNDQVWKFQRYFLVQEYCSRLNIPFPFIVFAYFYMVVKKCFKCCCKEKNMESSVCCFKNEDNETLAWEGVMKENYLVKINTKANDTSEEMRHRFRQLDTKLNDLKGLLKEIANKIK
Sequence of Transient receptor potential cation channel subfamily V member 1 (Q8NER1 whole entry): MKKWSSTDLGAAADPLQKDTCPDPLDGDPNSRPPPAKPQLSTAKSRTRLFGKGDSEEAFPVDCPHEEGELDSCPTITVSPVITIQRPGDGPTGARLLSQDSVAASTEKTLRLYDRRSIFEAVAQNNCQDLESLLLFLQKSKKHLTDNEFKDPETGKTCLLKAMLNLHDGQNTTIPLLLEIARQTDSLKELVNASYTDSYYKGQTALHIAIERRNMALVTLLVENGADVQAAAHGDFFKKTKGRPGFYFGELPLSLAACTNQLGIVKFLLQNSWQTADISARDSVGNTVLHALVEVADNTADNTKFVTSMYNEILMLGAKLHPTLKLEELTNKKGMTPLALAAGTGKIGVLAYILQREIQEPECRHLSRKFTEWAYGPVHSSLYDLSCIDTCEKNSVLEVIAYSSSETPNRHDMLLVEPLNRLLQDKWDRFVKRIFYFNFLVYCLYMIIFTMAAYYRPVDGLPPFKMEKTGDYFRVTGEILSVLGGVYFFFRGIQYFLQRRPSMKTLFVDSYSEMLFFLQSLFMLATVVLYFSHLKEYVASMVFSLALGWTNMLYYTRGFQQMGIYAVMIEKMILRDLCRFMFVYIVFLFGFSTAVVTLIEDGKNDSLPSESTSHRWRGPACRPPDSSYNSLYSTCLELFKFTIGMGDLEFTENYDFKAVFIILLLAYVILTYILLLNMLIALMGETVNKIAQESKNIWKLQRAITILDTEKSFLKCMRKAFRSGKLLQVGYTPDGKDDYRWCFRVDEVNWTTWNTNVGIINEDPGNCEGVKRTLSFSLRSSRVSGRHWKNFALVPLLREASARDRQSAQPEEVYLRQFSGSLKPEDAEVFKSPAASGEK
Sequence of Transient receptor potential cation channel subfamily V member 4 (Q9HBA0 whole entry): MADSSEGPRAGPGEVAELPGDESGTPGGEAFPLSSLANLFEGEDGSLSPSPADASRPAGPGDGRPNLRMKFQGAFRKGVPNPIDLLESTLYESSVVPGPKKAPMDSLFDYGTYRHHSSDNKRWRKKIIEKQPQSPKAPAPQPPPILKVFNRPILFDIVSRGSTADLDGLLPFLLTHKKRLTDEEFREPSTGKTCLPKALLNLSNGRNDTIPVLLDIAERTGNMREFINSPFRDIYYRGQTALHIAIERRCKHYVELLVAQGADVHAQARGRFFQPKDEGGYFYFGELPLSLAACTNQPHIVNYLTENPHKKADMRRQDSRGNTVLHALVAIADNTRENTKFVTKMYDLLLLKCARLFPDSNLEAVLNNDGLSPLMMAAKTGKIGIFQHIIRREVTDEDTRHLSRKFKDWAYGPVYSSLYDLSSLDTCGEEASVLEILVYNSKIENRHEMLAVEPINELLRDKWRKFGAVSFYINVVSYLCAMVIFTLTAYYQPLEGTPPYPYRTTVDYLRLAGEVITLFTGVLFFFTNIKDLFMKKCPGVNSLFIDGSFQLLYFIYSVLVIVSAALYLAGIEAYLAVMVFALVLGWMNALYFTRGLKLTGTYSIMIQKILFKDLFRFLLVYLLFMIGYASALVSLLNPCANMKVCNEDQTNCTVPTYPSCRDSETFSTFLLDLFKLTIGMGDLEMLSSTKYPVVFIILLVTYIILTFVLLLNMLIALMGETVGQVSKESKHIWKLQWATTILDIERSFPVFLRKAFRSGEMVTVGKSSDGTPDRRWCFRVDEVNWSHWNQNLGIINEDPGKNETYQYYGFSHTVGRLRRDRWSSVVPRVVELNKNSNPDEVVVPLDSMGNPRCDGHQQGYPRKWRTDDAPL

SMILES | IC50 [1] | IC50 [2] | IC50 [3] | IC50 [4] | IC50 [5]
Cn1c(=O)c2c(CC(=O)Nc3nc(-c4ccc(C(F)(F)F)c(F)c4F)cs3)nsc2n(C)c1=O | > 10 µM | 2.83 µM | 0.132 µM | 17.7 µM | –
Cn1c(=O)c2c(CC(=O)Nc3nc(-c4ccc(F)c(C(F)(F)F)c4F)cs3)csc2n(C)c1=O | – | 2.52 µM | 3.04 µM | – | –
Cc1oc2c(c1CC(=O)/N=c1\scc(-c3ccc(OC(F)(F)F)c(Cl)c3)n1COP(=O)(O)O)c(=O)n(C)c(=O)n2C | > 10 µM | > 10 µM | > 10 µM | > 10 µM | 1.18 µM
Cc1oc2c(c1CC(=O)/N=c1\scc(-c3ccc(OC(F)(F)F)c(Cl)c3)n1COC(=O)[C@@H](N)C(C)C)c(=O)n(C)c(=O)n2C | > 10 µM | 2.81 µM | 2.35 µM | > 10 µM | –
Cn1nc2c(c1CC(=O)/N=c1\scc(-c3ccc(F)c(C(F)(F)F)c3F)n1COP(=O)(O)O)c(=O)n(C)c(=O)n2C | > 10 µM | > 10 µM | > 10 µM | > 10 µM | 1.58 µM
Cc1oc2c(c1CC(=O)Nc1nc(-c3ccc(OC(F)(F)F)c(Cl)c3)cs1)c(=O)n(C)c(=O)n2C | > 10 µM | 4.45 µM | 5.74 µM | > 10 µM | –
